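Each compound was tested at five concentrations against cells in 96-well plates for 48 hours. GI50 is the concentration that inhibits growth by half.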 Activity calls are given as the source filed them. No stated cut-off is given here; in the data, active = GI50 up to about 1.1 µM and inactive = higher.
What was measured:
Experiment in all cases: NCI tumour cell line growth inhibition, 48 h
786-0 = test system: 786-0
A498 = test system: A498
A549 = test system: A549
ACHN = test system: ACHN
BT-549 = test system: BT-549
CAKI-1 = test system: CAKI-1
CCRF-CEM = test system: CCRF-CEM
COLO 205 = test system: COLO 205
DU-145 = test system: DU-145
EKVX = test system: EKVX
HCC 2998 = test system: HCC 2998
HCT-116 = test system: HCT-116
HCT-15 = test system: HCT-15
HL-60 = test system: HL-60
HOP-62 = test system: HOP-62
HOP-92 = test system: HOP-92
HT-29 = test system: HT-29
Hs-578T = test system: Hs-578T
IGROV-1 = test system: IGROV-1
K562 = test system: K562
KM12 = test system: KM12
LOX IMVI = test system: LOX IMVI
M14 = test system: M14
MCF7 = test system: MCF7
MDA-MB-231 = test system: MDA-MB-231
MDA-MB-435 = test system: MDA-MB-435
MDA-N = test system: MDA-N
MOLT-4 = test system: MOLT-4
Malme-3M = test system: Malme-3M
NCI-H226 = test system: NCI-H226
NCI-H23 = test system: NCI-H23
NCI-H460 = test system: NCI-H460
NCI-H522 = test system: NCI-H522
NCI/ADR-RES = test system: NCI/ADR-RES
OVCAR-3 = test system: OVCAR-3
OVCAR-4 = test system: OVCAR-4
OVCAR-5 = test system: OVCAR-5
OVCAR-8 = test system: OVCAR-8
PC-3 = test system: PC-3
RPMI-8226 = test system: RPMI-8226
RXF 393 = test system: RXF 393
SF-268 = test system: SF-268
SF-295 = test system: SF-295
SF-539 = test system: SF-539
SK-MEL-28 = test system: SK-MEL-28
SK-MEL-2 = test system: SK-MEL-2
SK-MEL-5 = test system: SK-MEL-5
SK-OV-3 = test system: SK-OV-3
SN12C = test system: SN12C
SNB-19 = test system: SNB-19
SNB-75 = test system: SNB-75
SR = test system: SR
SW-620 = test system: SW-620
T47D = test system: T47D
TK-10 = test system: TK-10
U-251 = test system: U-251
UACC-257 = test system: UACC-257
UACC-62 = test system: UACC-62
UO-31 = test system: UO-31

For `COc1cc(Nc2n[nH]c(NS(=O)(=O)c3cc(C)c(Cl)cc3S)n2)cc(OC)c1OC`, the GI50 (786-0) was > 100 µM (inactive), the GI50 (A498) was > 100 µM (inactive) and the GI50 (A549) was > 100 µM (inactive). The GI50 (ACHN) was > 100 µM (inactive), the GI50 (BT-549) was > 100 µM (inactive) and the GI50 (CAKI-1) was > 100 µM (inactive). The GI50 (CCRF-CEM) was > 100 µM (inactive), the GI50 (COLO 205) was > 100 µM (inactive) and the GI50 (DU-145) was > 100 µM (inactive). The GI50 (EKVX) was > 100 µM (inactive), the GI50 (HCC 2998) was > 100 µM (inactive) and the GI50 (HCT-116) was > 100 µM (inactive). For the same compound, the GI50 (HCT-15) was > 100 µM, the GI50 (HL-60) was > 100 µM (inactive) and the GI50 (HOP-62) was > 100 µM (inactive). For the same compound, the GI50 (HOP-92) was > 100 µM (inactive), the GI50 (HT-29) was > 100 µM (inactive) and the GI50 (Hs-578T) was > 100 µM (inactive). For the same compound, the GI50 (IGROV-1) was > 100 µM (inactive), the GI50 (K562) was > 100 µM (inactive) and the GI50 (KM12) was > 100 µM (inactive). The GI50 (LOX IMVI) was > 100 µM (inactive), the GI50 (M14) was > 100 µM (inactive) and the GI50 (MCF7) was > 100 µM (inactive). The GI50 (MDA-MB-231) was > 100 µM (inactive), the GI50 (MDA-MB-435) was > 100 µM (inactive) and the GI50 (MDA-N) was > 100 µM (inactive). The GI50 (MOLT-4) was > 100 µM (inactive), the GI50 (Malme-3M) was > 100 µM (inactive) and the GI50 (NCI-H226) was > 100 µM (inactive). For the same compound, the GI50 (NCI-H23) was > 100 µM (inactive), the GI50 (NCI-H460) was > 100 µM (inactive) and the GI50 (NCI-H522) was > 100 µM (inactive). The GI50 (NCI/ADR-RES) was > 100 µM (inactive), the GI50 (OVCAR-3) was > 100 µM (inactive) and the GI50 (OVCAR-4) was > 100 µM (inactive). The GI50 (OVCAR-5) was > 100 µM (inactive), the GI50 (OVCAR-8) was > 100 µM (inactive) and the GI50 (PC-3) was > 100 µM (inactive). The GI50 (RPMI-8226) was > 100 µM (inactive), the GI50 (RXF 393) was > 100 µM (inactive) and the GI50 (SF-268) was > 100 µM (inactive). For the same compound, the GI50 (SF-295) was > 100 µM (inactive), the GI50 (SF-539) was > 100 µM (inactive) and the GI50 (SK-MEL-28) was > 100 µM (inactive). The GI50 (SK-MEL-2) was > 100 µM (inactive), the GI50 (SK-MEL-5) was > 100 µM (inactive) and the GI50 (SK-OV-3) was > 100 µM (inactive). The GI50 (SN12C) was > 100 µM (inactive), the GI50 (SNB-19) was > 100 µM (inactive) and the GI50 (SNB-75) was > 100 µM (inactive). For the same compound, the GI50 (SR) was > 100 µM (inactive), the GI50 (SW-620) was > 100 µM (inactive) and the GI50 (T47D) was > 100 µM (inactive). The GI50 (TK-10) was > 100 µM (inactive), the GI50 (U-251) was > 100 µM (inactive) and the GI50 (UACC-257) was > 100 µM (inactive). The GI50 (UACC-62) was > 100 µM (inactive) and the GI50 (UO-31) was > 100 µM (inactive).
For `O=C(O)CSc1nnc(CCCCCCCCc2nnc(SCC(=O)O)o2)o1`, the GI50 (786-0) was > 100 µM (inactive), the GI50 (A498) was > 100 µM (inactive) and the GI50 (A549) was > 100 µM (inactive). The GI50 (ACHN) was > 100 µM (inactive), the GI50 (BT-549) was > 100 µM (inactive) and the GI50 (CAKI-1) was > 100 µM (inactive). The GI50 (CCRF-CEM) was > 100 µM (inactive), the GI50 (COLO 205) was > 100 µM (inactive) and the GI50 (DU-145) was > 100 µM (inactive). For the same compound, the GI50 (EKVX) was > 100 µM (inactive), the GI50 (HCC 2998) was > 100 µM (inactive) and the GI50 (HCT-116) was > 100 µM (inactive). The GI50 (HCT-15) was > 100 µM, the GI50 (HL-60) was > 100 µM (inactive) and the GI50 (HOP-62) was > 100 µM (inactive). For the same compound, the GI50 (HOP-92) was 79.8 µM (inactive), the GI50 (HT-29) was > 100 µM (inactive) and the GI50 (Hs-578T) was 82.2 µM (inactive). The GI50 (IGROV-1) was > 100 µM (inactive), the GI50 (K562) was > 100 µM (inactive) and the GI50 (KM12) was > 100 µM (inactive). For the same compound, the GI50 (LOX IMVI) was > 100 µM (inactive), the GI50 (M14) was > 100 µM (inactive) and the GI50 (MCF7) was > 100 µM (inactive). For the same compound, the GI50 (MDA-MB-231) was > 100 µM (inactive), the GI50 (MDA-MB-435) was > 100 µM (inactive) and the GI50 (MDA-N) was > 100 µM (inactive). For the same compound, the GI50 (MOLT-4) was > 100 µM (inactive), the GI50 (Malme-3M) was > 100 µM (inactive) and the GI50 (NCI-H226) was > 100 µM (inactive). The GI50 (NCI-H23) was > 100 µM (inactive), the GI50 (NCI-H460) was > 100 µM (inactive) and the GI50 (NCI-H522) was > 100 µM (inactive). The GI50 (NCI/ADR-RES) was > 100 µM (inactive), the GI50 (OVCAR-4) was > 100 µM (inactive) and the GI50 (OVCAR-5) was > 100 µM (inactive). For the same compound, the GI50 (OVCAR-8) was 55.5 µM (inactive), the GI50 (PC-3) was > 100 µM (inactive) and the GI50 (RPMI-8226) was > 100 µM (inactive). The GI50 (RXF 393) was 38.5 µM (inactive), the GI50 (SF-268) was > 100 µM (inactive) and the GI50 (SF-295) was > 100 µM (inactive). For the same compound, the GI50 (SK-MEL-28) was > 100 µM (inactive), the GI50 (SK-MEL-2) was > 100 µM (inactive) and the GI50 (SK-MEL-5) was > 100 µM (inactive). The GI50 (SK-OV-3) was > 100 µM (inactive), the GI50 (SN12C) was > 100 µM (inactive) and the GI50 (SNB-19) was > 100 µM (inactive). The GI50 (SNB-75) was 21.9 µM (inactive), the GI50 (SR) was > 100 µM (inactive) and the GI50 (SW-620) was > 100 µM (inactive). For the same compound, the GI50 (T47D) was > 100 µM (inactive), the GI50 (TK-10) was > 100 µM (inactive) and the GI50 (U-251) was > 100 µM (inactive). The GI50 (UACC-257) was > 100 µM (inactive), the GI50 (UACC-62) was > 100 µM (inactive) and the GI50 (UO-31) was > 100 µM (inactive).

Source: ChEMBL document CHEMBL1201862, “PubChem BioAssay data set” (2004)
